Assay results as given in patent US9994552B2, “Compositions useful for treating disorders related to kit” (BLUEPRINT MEDICINES CORPORATION, priority 2013, dated 2018).

Assays:
[1] = molecular target: Kit D816V kinase activity (Kit autophosphorylation at tyrosine 719) (Homo sapiens (Human), UniProt P10721, D816V/V560G); assay: HMC1.2 Autophosphorylation Assay (AlphaLISA phospho-Y719 c-Kit)
Procedure: 10,000 HMC1.2 cells were incubated in 22 ul culture media (phenol-red free IMDM, no serum) in each well of a 384-well plate and serum starved overnight in a tissue culture incubator (5% CO2, 37° C.). […] After 90 minutes, 6 ul of 5× AlphaLISA Lysis Buffer (Perkin Elmer) supplemented with a protease and phosphatase inhibitor cocktail (Cell Signaling Technologies) was added to each well and shaken at 450 rpm for 15 minutes at 4° C. […] 10 ul of 100 ug/ml streptavidin donor beads (Perkin Elmer) were added to each well, blocked from light with aluminum adhesive and shaken at 300 rpm at room temperature for 2 hours. Fluorescence signal was obtained on Envision (Perkin Elmer) by AlphaScreen 384 well HTS protocol.

D816V Kit = D816V Kit (Homo sapiens (Human), UniProt P10721, D816V); assay: Kit D816V assay at Km (Caliper electrophoretic mobility shift); format: biochemical; conditions: for IC50: D816V Kit 0.5 nM, 15 uM ATP (Km), 1 uM Srctide, 25 C, 90 minutes, read-out: INH-KITD816V ENZ-KM IC50 (nM) (Num); for times more potent against the D816V mutant than against the wild-type Kit: D816V Kit versus wild-type Kit, enzyme assays at Km
Sequence of D816V Kit (P10721 26-976 D816V): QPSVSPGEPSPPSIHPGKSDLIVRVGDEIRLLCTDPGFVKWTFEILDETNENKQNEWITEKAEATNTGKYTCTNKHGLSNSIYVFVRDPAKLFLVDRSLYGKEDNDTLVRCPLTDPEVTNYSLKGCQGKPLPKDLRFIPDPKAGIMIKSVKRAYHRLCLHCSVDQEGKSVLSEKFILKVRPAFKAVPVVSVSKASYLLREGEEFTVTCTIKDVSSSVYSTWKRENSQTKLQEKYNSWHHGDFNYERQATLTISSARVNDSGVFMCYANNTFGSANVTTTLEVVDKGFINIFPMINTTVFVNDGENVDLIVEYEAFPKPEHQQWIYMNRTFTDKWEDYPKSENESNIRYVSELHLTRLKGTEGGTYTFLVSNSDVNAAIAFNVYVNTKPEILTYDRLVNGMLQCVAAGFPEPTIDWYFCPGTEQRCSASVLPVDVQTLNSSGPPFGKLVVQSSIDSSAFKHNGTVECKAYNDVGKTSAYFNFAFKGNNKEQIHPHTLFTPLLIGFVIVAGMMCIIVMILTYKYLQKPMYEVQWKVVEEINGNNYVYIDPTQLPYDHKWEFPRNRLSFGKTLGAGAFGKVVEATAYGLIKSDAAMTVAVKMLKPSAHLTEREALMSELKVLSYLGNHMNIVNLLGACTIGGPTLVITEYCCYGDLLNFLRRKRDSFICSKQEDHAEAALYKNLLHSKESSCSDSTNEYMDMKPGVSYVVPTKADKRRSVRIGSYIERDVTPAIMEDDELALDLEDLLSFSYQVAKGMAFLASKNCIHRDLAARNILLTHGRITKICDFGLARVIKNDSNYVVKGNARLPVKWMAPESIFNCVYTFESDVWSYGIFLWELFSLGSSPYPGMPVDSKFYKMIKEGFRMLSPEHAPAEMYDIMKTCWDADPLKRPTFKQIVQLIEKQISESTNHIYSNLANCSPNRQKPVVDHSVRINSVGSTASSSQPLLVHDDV
Method in brief: (§1)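 Read-out is the ratio of phosphorylated to unphosphorylated fluorescent peptide, resolved by mobility shift on a Caliper EZ Reader 2.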

wild type Kit = wild type Kit (Homo sapiens (Human), UniProt P10721); assay: Kit wild type assay at Km (Caliper electrophoretic mobility shift); format: biochemical; conditions: wild type Kit 2 nM, 400 uM ATP (Km), 1 uM Srctide, 25 C, 90 minutes; read-out: INH-KITWT ENZ-KM IC50 (nM) (Num)
Sequence of wild type Kit (P10721 26-976): as the sequence (P10721 26-976 D816V) above, with V791D counted along it
Method in brief: as §1

HMC1.2 cells = assay: HMC1.2 Proliferation Assay (CellTiter-Glo); conditions: 72 h, read-out: HMC1.2 Proliferation IC50
Procedure: 1000 HMC1.2 cells were incubated in 22 ul culture media (IMDM, 10% calf serum with Iron) in each well of a 384-well plate overnight in a tissue culture incubator (5% CO2, 37° C.). […] After 3 days incubation in tissue culture incubator, 25 ul CellTiter-Glo (Promega) solution was added to each well for ATP/cell viability measurement.
In addition, these compounds were assayed for their ability to inhibit the dependence of these cells on Kit kinase activity by disrupting their growth and proliferation.

Sequence of Kit D816V kinase activity (Kit autophosphorylation at tyrosine 719) (P10721 26-976 V560G/D816V): as the sequence (P10721 26-976 D816V) above, with V535G counted along it

IC50 [1] [nM]	IC50 (D816V Kit) [nM]	IC50 (wild type Kit) [nM]	times more potent against the D816V mutant than against the wild-type Kit (D816V Kit)	SMILES	IC50 (HMC1.2 cells) [nM]
100 to 1000	1.01 to 10	11 to 100		COc1cc2c(N3CCN(c4ncc(Cc5ccccc5)cn4)CC3)ncnc2cc1OCC(O)CO (centres unmarked) [Compound 85]	1000 to 10000
100 to 1000	1.01 to 10	11 to 100	less than 5 times	COc1cc2ncnc(N3CCN(c4ncc(Cc5ccccc5)cn4)C(C)C3)c2cc1OC (centres unmarked) [Compound 23]	1000 to 10000
10 to 100	< 1	11 to 100		COc1cc2ncnc(N3CCN(c4ncc(Cc5ccccc5)cn4)CC3)c2cc1OCC1CCNC(=O)C1 (centres unmarked) [Compound 109]	1000 to 10000
< 10	< 1	< 10		COc1cc2ncnc(N3CCN(c4ncc(Cc5ccccc5)c(N)n4)CC3)c2cc1OCC1CCN(C)CC1 [Compound 125]	100 to 1000
> 10000	10 to 100	> 1000	at least 100 times	c1ccc(Cc2cnc(N3CCN(c4ncnc5[nH]cnc45)CC3)nc2)cc1 [Compound 1]	1000 to 10000
100 to 1000	1.01 to 10	11 to 100		COc1cc2ncnc(N3CCN(c4ncc(COc5ccccc5)cn4)CC3)c2cc1OC [Compound 36]	1000 to 10000
100 to 1000	1.01 to 10	11 to 100		COc1cc2ncnc(N3CCN(c4ncc(Cc5ccccc5)cn4)CC3)c2cc1OC1CCN(C)CC1 [Compound 99]	1000 to 10000
100 to 1000	< 1	11 to 100		COc1cc2ncnc(N3CCN(c4ncc(Cc5ccccc5)cn4)CC3)c2cc1OCCCN1CCN(C)CC1 [Compound 136]	1000 to 10000
10 to 100	1.01 to 10	11 to 100		COc1cc2ncnc(N3CCN(c4ncc(Cc5ccccc5)cn4)CC3)c2cc1OCC1CNC1 [Compound 79]	1000 to 10000
